Results from patent US20250255994A1, “DIMERIC IMMUNOCONJUGATES FOR USE IN TREATING CANCERS AND METHODS OF USE” (Medicovestor, Inc., priority 2023, published 2025).
Entries after “also recorded” stand apart in the source; their conditions may differ. Starred links: 1 amine or outer side, 2 acyl side, 3 side chain; linkers in the order of their positions; H or OH if unused. Non-standard residues stand in square brackets, D forms with d. Residues, ends and D or L forms follow the SMILES beside them. *: point of attachment. Exatecan = CC[C@@]1(O)C(=O)OCc2c1cc1n(c2=O)Cc2c-1nc1cc(F)c(C)c3c1c2[C@@H](N*)CC3; Hexanoyl(6-maleimido) = O=C1C=CC(=O)N1CCCCCC(=O)*; NHCH2OCH2CO = O=C(COCN[*:1])[*:2]

Tests used:
[1] = system: SK-OV-3 cells; test: SK-OV-3 cytotoxicity assay (luminescence), Example 4; settings: 5 or 6 additional days; for Max Cytotoxicity: FIG. 9 axis: percent cytotoxicity
Method: SK-OV-3 cells were seeded at 1000, 2000, or 3000 cells per well and incubated overnight in advance of a cytotoxicity assay. […] The SK-OV-3 cells were treated with various concentrations of the SP17-AB2 antibody, the SP17-AB2-DXD immunoconjugate, a control human IgG4 antibody (hIgG4), or deruxtecan alone (DXD). The cells were incubated for 5 or 6 additional days, and cytotoxicity was then measured using a luminescence assay and En Vision™ plate reader (PerkinElmer, Massachusetts, United States).

[2] = system: SK-OV-3 cells; test: SK-OV-3 cytotoxicity assay (luminescence), Example 9; assay type: cell-based, human; settings: SK-OV-3 cells at 2000 cells/well; five additional days
Method: The SK-OV-3 cells are then treated with various concentrations of (1) the SP17-AB2 antibody, (2) the SP17-AB2-DXD immunoconjugate, (3) the SP17-AB2-Ozogamicin immunoconjugate, (4) both the SP17-AB2-DXD immunoconjugate and the SP17-AB2-Ozogamicin, (5) the dSP17-AB2-DXD/Ozogamicin immunoconjugate, (6) hdSP17-AB2, (7) hIgG4, or (8) deruxtecan. […] IC50s and maximum cytotoxicity are then determined.
The IC50 of (4) the combination of SP17-AB2-DXD and SP17-AB2-Ozogamicin is determined based on the concentration of SP17-AB2-DXD and SP17-AB2-Ozogamicin individually and not based on the combined concentration. For example, when SK-OV-3 cells are incubated at a concentration of SP17-AB2-DXD and SP17-AB2-Ozogamicin of 128 nanomolar each, then the IC50 is calculated based on the 128 nanomolar concentration (and not the 256 nanomolar combined concentration) so that 128 nanomolar of (4) SP17-AB2-DXD and SP17-AB2-Ozogamicin contains about the same concentration of deruxtecan, ozogamicin, and antigen-binding sites as 128 nanomolar of (5) the dSP17-AB2-DXD/Ozogamicin immunotherapeutic.

[3] = system: ID8 cells; test: ID8 cytotoxicity assay, Example 4; assay type: cell-based, mouse; settings: 3 additional days, FIG. 10 axis: percent cytotoxicity
Method: […] The cells were then treated with various concentrations of either the SP17-AB2 antibody, the SP17-AB2-DXD immunoconjugate, hIgG4, or deruxtecan alone. The cells were incubated for 3 additional days, and then cytotoxicity was measured.

[4] = target: T1, recombinant 6His-Sp17 protein (human, UniProt Q15506 1-151); test: surface plasmon resonance (Biacore T200), 6His-Sp17 at 6.25-300 nanomolar as analyte
T1 construct: Analyte of the surface plasmon resonance experiment; not shown: 6His tag
T1 sequence (looked up): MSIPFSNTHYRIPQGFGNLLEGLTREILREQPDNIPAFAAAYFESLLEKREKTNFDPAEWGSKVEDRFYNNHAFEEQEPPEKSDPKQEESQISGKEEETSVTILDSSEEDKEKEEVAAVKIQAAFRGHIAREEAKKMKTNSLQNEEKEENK
Source text: (§1) The lines correspond, from highest to lowest, to fitted cycles for 300 nanomolar, 100 nanomolar, 50 nanomolar, 25 nanomolar, 12.5 nanomolar, and 6.25 nanomolar concentrations of 6His-Sp17.
(§2) The nucleotide sequences encoding the VH and VL regions of Example 1 were cloned into a […] heavy chain gene and a mouse kappa light chain gene, respectively, and expressed in CHO-S cells to produce a mouse-human chimeric antibody, which was named chAB2. Successful generation of the antibody was confirmed by SDS-PAGE and western blotting using anti-mouse heavy and light chain antibodies and recombinant Sp17 protein (FIGS. 2 & 3). The chAB2 antibody was reactive to mouse surface Sp17 protein expressed on the mouse ovarian cancer cell line ID8 (FIG. 4).

[5] = target: T1, recombinant 6His-Sp17 protein; test: surface plasmon resonance, 6His-Sp17 at 6.25-300 nanomolar as analyte
Source text: as §1, §2

[6] = target: T2, recombinant 6His-Sp17 protein (Homo sapiens, UniProt Q15506); test: Surface plasmon resonance (Biacore T200) of chAB2 binding to Sp17; settings: SPR
T2 construct: 6His
T2 sequence (Q15506 1-151): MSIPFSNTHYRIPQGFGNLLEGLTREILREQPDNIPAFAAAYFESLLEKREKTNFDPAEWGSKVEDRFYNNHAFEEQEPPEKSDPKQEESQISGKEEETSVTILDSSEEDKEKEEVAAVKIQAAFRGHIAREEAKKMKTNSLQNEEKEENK
Source text: as §1
(§3) The nucleotide sequences encoding the VH and VL regions of Example 1 were cloned into a […] heavy chain gene and a mouse kappa light chain gene, respectively, and expressed in CHO-S cells to produce a mouse-human chimeric antibody, which was named chAB2. Successful generation of the antibody was confirmed by SDS-PAGE and western blotting using anti-mouse heavy and light chain antibodies and recombinant Sp17 protein (FIGS. 2 & 3).

[7] = system: 33 normal human tissues; test: Immunohistochemistry on a normal tissue microarray (specificity); assay type: binding
Method: The specificity of the chAB2 antibody for Sp17 was determined with immunohistochemistry on a normal tissue microarray, which consisted of 33 normal tissues obtained from 2-3 human donors per tissue. The normal tissues included brain, eye, adrenal gland, hypophyseal, thyroid, parathyroid, tonsil, thymus, spleen, heart, lung, larynx, esophagus, stomach, small intestine, colon, liver, pancreas, salivary gland, kidney, bone, skeletal, skin, peripheral nerve, mesothelial, breast, ovary, endometrium, cervix, testis, and prostate.

[8] = target: T3, mouse surface Sp17 protein expressed on the mouse ovarian cancer cell line ID8 (Mus musculus, UniProt Q62252); test: Flow cytometry of ID8 cells labeled with chAB2 and anti-mouse FITC antibody; assay type: cell-based; settings: relative to anti-mouse FITC antibody alone
T3 construct: mouse surface Sp17 protein expressed on the mouse ovarian cancer cell line ID8; endogenous in cells; host or cells: ID8 mouse ovarian cancer cells
T3 sequence (Q62252 1-149): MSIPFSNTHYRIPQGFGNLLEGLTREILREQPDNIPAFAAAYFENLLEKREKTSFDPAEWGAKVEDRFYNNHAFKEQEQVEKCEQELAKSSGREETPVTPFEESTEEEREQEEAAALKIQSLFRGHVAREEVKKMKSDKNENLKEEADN
Method: FIG. 4 consists of three panels. The left panel is a graph that depicts flow cytometry results for ID8 cells incubated with an anti-mouse fluorescein isothiocyanate (FITC) antibody, but without a primary antibody. The middle panel is a graph that depicts flow cytometry results for ID8 cells labeled with the anti-Sp17 antibody chAB2 and the anti-mouse FITC antibody.
as §3

[9] = SK-OV-3 cells at 1000 cells/well
[10] = SK-OV-3 cells at 2000 cells/well
[11] = SK-OV-3 cells at 3000 cells/well

## CC[C@@]1(O)C(=O)OCc2c1cc1n(c2=O)Cc2c-1nc1cc(F)c(C)c3c1c2[C@@H](NC(=O)COCNC(=O)CNC(=O)[C@H](Cc1ccccc1)NC(=O)CNC(=O)CNC(=O)CCCCCN1C(=O)C=CC1=O)CC3 [deruxtecan] ({Hexanoyl(6-maleimido)}-GGFG[NHCH2OCH2CO]-Exatecan)
[1]; [9]
  IC50: 0.75 nM
  Max Cytotoxicity: 98
[1]; [10]
  IC50: 1.1 nM
  Max Cytotoxicity: 97
[1]; [11]
  IC50: 1.2 nM
  Max Cytotoxicity: 97
[2]
  Max Cytotoxicity: 97
[3]; ID8 cells at 250 cells/well
  Max Cytotoxicity: 94
[3]; ID8 cells at 500 cells/well
  Max Cytotoxicity: 93

B1: mouse-human chimeric anti-Sp17 IgG2a/kappa monoclonal antibody chAB2 (antibody, V domains shown)
VH: QVQLQQSGAEVKKPGSSVKVSCKASGGTFSSYAISWVRQAPGQGLEWMGRIIPILGIANYAQKFQGRVTITADKSTSTAYMELSSLRSEDTAVYYCARPSEEVVAAYGAFDIWGQGTTVTVSS
VL: EIVLTQSPLSLPVRPGEPASISCRASQSLLRSDGFNYLDWYLQKPGQSPQLLVYLGSNRASGVPDRFSGSGSGTDFTLKISRVEAEDVGVYYCMQAVQTPYIFGQGTKLEIK
notes: also called chimeric antibody; anti-Sp17 antibody chAB2
[4]
  Kd: 2.07 nM
[5]
  koff: 0.00013 s⁻¹
  kon: 62600 M⁻¹ s⁻¹

B2: chAB2: mouse-human chimeric anti-Sp17 antibody: human VH/VL in mouse IgG2a heavy chain and mouse kappa light chain, expressed in CHO-S cells (antibody, V domains shown)
VH: QVQLQQSGAEVKKPGSSVKVSCKASGGTFSSYAISWVRQAPGQGLEWMGRIIPILGIANYAQKFQGRVTITADKSTSTAYMELSSLRSEDTAVYYCARPSEEVVAAYGAFDIWGQGTTVTVSS
VL: EIVLTQSPLSLPVRPGEPASISCRASQSLLRSDGFNYLDWYLQKPGQSPQLLVYLGSNRASGVPDRFSGSGSGTDFTLKISRVEAEDVGVYYCMQAVQTPYIFGQGTKLEIK
[6]; 6.25-300 nanomolar 6His-Sp17
  association rate constant (ka): 62,600 per mole per second
[6]; read-out: dissociation constant (KD)
  Kd: ~2 nM
[7]; 33 normal tissues, 2-3 human donors per tissue
  binding to / cross-reactivity with normal tissues (immunohistochemistry): lack detectable cross-reactivity; also recorded: did not bind to normal tissues
[7]; testis tissue
  binding to testis (immunohistochemistry): bound to testis
[8]
  reactivity to surface Sp17 on ID8 cells (mean fluorescent intensity): reactive to mouse surface Sp17 protein; also recorded: increased mean fluorescent intensity
